Results taken from US20090163453A1, “Prevention and Treatment of Gastrointestinal and Bladder Disorders Associated with Chemotherapy or Radiation Therapy Using Active Vitamin D Compounds” (Novacea Inc., priority 2005, published 2009).

How the values were obtained:
patients = details: administered doses with cisplatin infusions; cited from earlier work
[1] = system: patients with androgen independent prostate cancer; details: human, in vivo
Procedure: Two hundred fifty patients with androgen independent prostate cancer were enrolled in a randomized placebo controlled trial at 48 centers in the United States and Canada.
The same Taxotere® dose of 36 mg/m^2 body surface area was administered to the patients receiving Taxotere® and placebo or Taxotere® in combination with calcitriol.
Hospitalization for dehydration was more common in those patients receiving Taxotere® and placebo.

[2] = Solubility study of calcitriol in each formulation (light microscope); format: physicochemical; details: each formulation of Table 3; heated to 50° C., cooled to room temperature; highest concentration tested
Procedure: To further assess the formulations of calcitriol, a solubility study was conducted to evaluate the amount of calcitriol soluble in each formulation. Calcitriol concentrations from 0.1 to 0.6 μg calcitriol/mg formulation were prepared by heating the formulations to 50° C. followed by addition of the appropriate mass of calcitriol. The formulations were then allowed to cool to room temperature and the presence of undissolved calcitriol was determined by a light microscope with and without polarizing light. For each formulation, calcitriol was soluble at the highest concentration tested, 0.6 μg calcitriol/mg formulation.

SMILES	Emesis, percent of patients (patients)	Hypotension, percent of patients (patients)	GI disorders versus Taxotere and placebo [1]	Calcitriol soluble in formulation [2]
NCCCNCCSP(=O)(O)O [WR 2721, S-2-(3-aminopropylamino)ethylphosphorothioic acid]	48 % of patients	7 % of patients	–	–
C=C1/C(=C\C=C2/CCC[C@]3(C)[C@@H]([C@H](C)CCCC(C)(C)O)CC[C@@H]23)C[C@@H](O)C[C@@H]1O [Calcitriol, 1α,25-hydroxyvitamin D3]	–	–	fewer GI disorders	≥ 0.6 μg calcitriol/mg formulation
